Test results published in patent US6518399B1, “Receptor” (Smithkline Beecham Corporation, priority 1998, dated 2003).

B1: GABAB-R2 C-terminal domain, GAL4 fusion (receptor, not shown: small tags and cut ends)
chain: VPKLITLRTNPDAATQNRRFQFTQNQKKEDSKTSTSVTSVNQASTSRLEGLQSENHRLRMKITELDKDLEEVTMQLQDTPEKTTYIKQNHYQELNDILNLGNFTESTDGGKAILKNHLDQNPQLQWNTTEPSRTCKDPIEDINSPEHIQRRLSLQLPILHHAYLPSIGGVDASCVSPCVSPTASPRHRHVPPSFRVMVSGL
notes: Only the intracellular C-terminal domain of GABAB-R2 was used; also called GABAB-R2 C-terminus; YTH HITS

Experiments:
[1] = test system: GABAB-R1a, GABAB-R1b or GABAB-R2 receptors expressed alone; format: cell-based, human; details: for Functional response, CFTR or GIRK1/4 current: GABAB-R1a, GABAB-R1b or GABAB-R2 expressed singly with CFTR or GIRK1/4
Protocol: Adult female Xenopus laevis (Blades Biologicals) were anaesthetised using 0.2% tricaine (3-aminobenzoic acid ethyl ester), killed and the ovaries rapidly removed. […] Single stage V and VI oocytes were transferred to ND96 solution (96 mM NaCl, 2 mM KCl, 1 mM MgCl2, 1.8 mM CaCl2, 5 mM HEPES; pH 7.5 at 25° C.) which contained 50 μg ml^−1 gentamycin and stored at 18° C.
GABAB-R1a, GABAB-R1b (both in pcDNA3.1rev, Invitrogen), GABAB-R2, GIRK1, GIRK4 (in pcDNA3) and cystic fibrosis transmembrane regulator (CFTR; in pBluescript, Stratagene) were linearised and transcribed to RNA using T7 or T3 polymerase (Promega Wizard kit). m′G(5′)pp(5′)GTP capped cRNA was injected into oocytes (20-50 nl of 1 μgμl^−1 RNA per oocyte) and whole-cell currents were recorded using two-microelectrode voltage-clamp (Geneclamp amplifier, Axon instruments Inc.) 3 to 7 days post-RNA injection. […] In all experiments oocytes were voltage-clamped at a holding potential of −60 mV in ND96 solution (superfused at 2 ml per min.) and agonists were applied by addition to this extracellular solution. In GIRK experiments the extracellular solution was changed to a high potassium solution prior to agonist application, to facilitate the recording of inward potassium currents. Current-voltage curves were constructed by applying 200 ms voltage-clamp pulses from the holding potential of […] to test potentials between −100 mV and +50 mV.

HA-GABAB-R2 = target: T1, HA-GABAB-R2 (Homo sapiens, UniProt O75899); experiment: [3H]-CGP54626 binding, HEK293T cells transfected with HA-GABAB-R2 alone; details: HA-GABAB-R2 alone (data not shown)
T1 construct: heterodimerisation between full-length expressed GABAB-R1 and GABAB-R2 in mammalian cells; expressed in transfected cells; host or cells: HEK293T
T1 sequence (O75899 42-941): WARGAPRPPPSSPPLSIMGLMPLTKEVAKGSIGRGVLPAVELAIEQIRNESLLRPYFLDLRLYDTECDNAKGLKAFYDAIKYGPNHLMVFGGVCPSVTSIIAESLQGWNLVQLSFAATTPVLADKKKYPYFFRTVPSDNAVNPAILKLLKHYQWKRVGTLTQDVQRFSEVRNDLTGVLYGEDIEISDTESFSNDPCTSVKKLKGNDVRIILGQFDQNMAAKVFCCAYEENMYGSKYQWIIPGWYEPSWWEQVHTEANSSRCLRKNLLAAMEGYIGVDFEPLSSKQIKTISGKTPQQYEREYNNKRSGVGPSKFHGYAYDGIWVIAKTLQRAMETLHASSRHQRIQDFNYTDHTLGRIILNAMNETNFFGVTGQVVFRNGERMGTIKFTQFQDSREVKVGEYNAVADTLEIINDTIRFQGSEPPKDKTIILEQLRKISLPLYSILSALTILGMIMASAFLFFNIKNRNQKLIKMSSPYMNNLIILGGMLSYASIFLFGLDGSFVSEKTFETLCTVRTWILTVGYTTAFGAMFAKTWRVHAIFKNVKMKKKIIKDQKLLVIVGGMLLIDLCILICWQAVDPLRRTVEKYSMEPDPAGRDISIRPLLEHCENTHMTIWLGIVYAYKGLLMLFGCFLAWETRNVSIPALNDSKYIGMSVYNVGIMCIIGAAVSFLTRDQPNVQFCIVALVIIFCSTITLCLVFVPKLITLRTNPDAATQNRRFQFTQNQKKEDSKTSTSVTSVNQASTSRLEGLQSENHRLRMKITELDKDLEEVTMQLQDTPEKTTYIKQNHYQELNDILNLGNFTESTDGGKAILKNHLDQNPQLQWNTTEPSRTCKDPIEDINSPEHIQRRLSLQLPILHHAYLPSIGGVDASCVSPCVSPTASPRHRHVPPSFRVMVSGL
Excerpt: […]. […] […]

HA-GABAB-R1b = HA-GABAB-R1b (Homo sapiens, UniProt Q9UBS5); experiment: [3H]-CGP54626 binding, HEK293T membranes expressing HA-GABAB-R1b alone; details: HA-GABAB-R1b expressed alone
Sequence of HA-GABAB-R1b (Q9UBS5 30-844 isoform Q9UBS5-2 limits assumed): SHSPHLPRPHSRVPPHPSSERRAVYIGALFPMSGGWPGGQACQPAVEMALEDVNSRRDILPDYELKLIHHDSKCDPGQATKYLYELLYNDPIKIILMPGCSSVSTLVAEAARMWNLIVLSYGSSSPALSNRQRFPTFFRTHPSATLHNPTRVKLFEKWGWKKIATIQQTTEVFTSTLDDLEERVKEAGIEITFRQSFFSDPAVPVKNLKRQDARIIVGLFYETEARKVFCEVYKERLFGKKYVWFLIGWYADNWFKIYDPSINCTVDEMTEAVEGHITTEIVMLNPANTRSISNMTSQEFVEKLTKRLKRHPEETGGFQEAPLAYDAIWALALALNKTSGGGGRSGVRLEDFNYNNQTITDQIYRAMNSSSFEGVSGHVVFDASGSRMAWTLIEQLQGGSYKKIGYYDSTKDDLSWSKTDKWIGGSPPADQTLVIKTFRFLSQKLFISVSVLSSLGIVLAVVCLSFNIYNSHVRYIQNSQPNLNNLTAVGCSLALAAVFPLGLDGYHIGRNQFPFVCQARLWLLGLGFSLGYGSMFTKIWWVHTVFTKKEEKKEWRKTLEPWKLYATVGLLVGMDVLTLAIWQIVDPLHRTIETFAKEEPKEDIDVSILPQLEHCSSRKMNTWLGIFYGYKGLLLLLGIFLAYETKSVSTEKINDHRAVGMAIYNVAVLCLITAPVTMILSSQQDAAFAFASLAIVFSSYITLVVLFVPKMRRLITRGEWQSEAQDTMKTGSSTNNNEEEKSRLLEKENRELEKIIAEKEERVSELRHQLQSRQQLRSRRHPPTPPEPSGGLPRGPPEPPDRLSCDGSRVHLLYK
Protocol: Competition binding assays were performed in 50 mM Tris HCl buffer (pH7.4) containing 40 μM isoguvacine (Tocris Cookson) to block rat brain GABAA binding sites. P2 membrane preparations were made from HEK293T cells transfected using conditions described above. […] Assay conditions were 0.4-0.6 nM [^3H]-CGP54626, incubated with 50 μg/tube crude rat brain ‘mitochondrial’ fractions or 25 μg/tube HEK293T P2 membranes at room temperature for 20 minutes.

[2] = target: the molecule itself; experiment: yeast two hybrid, GAL4BD and GAL4AD fusions of the C-termini (FIG. 5)
[3] = target: the molecule itself; experiment: yeast two hybrid, GAL4BD and GAL4AD fusions of the C-termini (FIG. 5); the library screen also did not retrieve the GABAB-R1 C-terminal domain
[4] = target: B1; experiment: yeast two hybrid, direct test of the C-termini (β-galactosidase, FIG. 5); GABAB-R2 C-terminal domain also recovered 33 times in the library screen with the GABAB-R1 bait

Molecule: NCC(CC(=O)O)c1ccc(Cl)cc1 (centres unmarked) [Baclofen]
- Functional response, CFTR or GIRK1/4 current [1]: No functional responses

Molecule: NCCCC(=O)O [GABA, γ-amino-butyric acid]
- Functional response, GIRK1/4 current ([1]; GABAB-R1a and GABAB-R1b expressed alone (data not shown)): gave no response to GABA
- Functional response, CFTR or GIRK1/4 current [1]: No functional responses

Molecule: C[C@H](NC[C@H](O)CP(=O)(O)CC1CCCCC1)c1ccc(Cl)c(Cl)c1 [[3H]-CGP54626]
- Specific binding of radioligand (HA-GABAB-R2): unable to detect any [3H]-CGP54626 specific binding
- Specific binding of radioligand (HA-GABAB-R1b): high levels of specific binding

Molecule: B1
- binding result [2]: no binding

B2: GABAB-R1 C-terminal domain (C-terminal 108 amino acids of GABAB-R1), GAL4 fusion (receptor, not shown: small tags and cut ends)
chain: VPKMRRLITRGEWQSEAQDTMKTGSSTNNNEEEKSRLLEKENRELEKIIAEKEERVSELRHQLQSRQQLRSRRHPPTPPEPSGGLPRGPPEPPDRLSCDGSRVHLLYK
notes: Used as GAL4BD fusion in the library screen and as both GAL4BD and GAL4AD fusions in the direct test (all combinations); also called GABAB-R1 C-terminus; GAL4BD-GABAB-R1 C-terminus
- binding result [3]: no binding
- binding result [4]: binds
